Results as given in BindingDB's records for doi:10.1021/jm048993p (Merck Research Laboratories, 2005).

Molecular target: Peroxisome proliferator-activated receptor alpha (Mesocricetus auratus)
Test: Agonist activity against hamster Peroxisome proliferator activated receptor alpha

EC50: 0.46 µM
Structure (SMILES): CCCc1cc2c(C(F)(F)F)noc2c(CCC)c1OC(C)(C)C(=O)O [2-(5,7-Dipropyl-3-trifluoromethyl-benzo[d]isoxazol-6-yloxy)-2-methyl-propionic acid]
